Where two headings read alike, the source gives them in different places. Peptide text beside a SMILES is read from it. * marks the point of attachment. Biotin = O=C1N[C@H]2[C@H](CS[C@H]2CCCCC(=O)*)N1
How the values were obtained:
Experiment in all cases: Apparent affinity (Kd) by titration of PL peptide in the G assay
Assay type in all cases: binding
[1] = molecular target: T1, PDZ-domain polypeptide (GST/PDZ fusion protein) (Homo sapiens, UniProt Q02410)
T1 construct: made in house; host or cells: E. coli (DH5alpha, BL21 or JM109)
T1 sequence (Q02410 1-837): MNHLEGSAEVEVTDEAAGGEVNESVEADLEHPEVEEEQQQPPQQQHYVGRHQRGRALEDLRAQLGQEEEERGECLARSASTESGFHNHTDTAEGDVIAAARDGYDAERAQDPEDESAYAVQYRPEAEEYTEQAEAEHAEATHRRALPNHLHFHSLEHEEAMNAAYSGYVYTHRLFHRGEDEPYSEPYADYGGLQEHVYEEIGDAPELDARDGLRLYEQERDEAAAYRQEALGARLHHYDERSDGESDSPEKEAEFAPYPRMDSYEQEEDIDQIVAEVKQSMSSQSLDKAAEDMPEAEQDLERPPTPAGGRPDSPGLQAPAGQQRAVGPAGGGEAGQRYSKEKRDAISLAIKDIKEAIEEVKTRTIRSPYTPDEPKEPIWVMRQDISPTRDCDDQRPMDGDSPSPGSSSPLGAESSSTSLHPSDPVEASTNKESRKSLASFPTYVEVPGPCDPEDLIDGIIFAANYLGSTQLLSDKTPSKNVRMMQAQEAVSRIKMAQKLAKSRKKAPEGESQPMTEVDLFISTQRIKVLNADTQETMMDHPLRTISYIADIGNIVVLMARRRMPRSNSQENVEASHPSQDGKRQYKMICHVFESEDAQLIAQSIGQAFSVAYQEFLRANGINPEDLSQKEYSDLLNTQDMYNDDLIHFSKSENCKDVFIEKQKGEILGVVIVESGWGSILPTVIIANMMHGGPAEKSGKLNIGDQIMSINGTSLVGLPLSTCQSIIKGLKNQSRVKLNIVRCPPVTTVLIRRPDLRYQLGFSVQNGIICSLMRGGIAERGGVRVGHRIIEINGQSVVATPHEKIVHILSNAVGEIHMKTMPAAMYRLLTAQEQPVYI
Method in brief: (§1)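 A fixed concentration of GST/PDZ fusion protein, 5 ug/ml by default, was mixed in solution with increasing labeled PL peptide (e.g. 0.1 uM-1 mM). Reaction times ranged from 10 minutes to 2 days at 4-37° C. Complexes were separated from free peptide and detected via the label as in the G assay, apparent affinity coming from the saturating concentration.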

[2] = molecular target: T2, PDZ-domain polypeptide (GST/PDZ fusion protein) (Homo sapiens, UniProt O75970)
T2 construct: made in house; host or cells: E. coli (DH5alpha, BL21 or JM109)
T2 sequence (O75970 whole entry, the tested form may be a part): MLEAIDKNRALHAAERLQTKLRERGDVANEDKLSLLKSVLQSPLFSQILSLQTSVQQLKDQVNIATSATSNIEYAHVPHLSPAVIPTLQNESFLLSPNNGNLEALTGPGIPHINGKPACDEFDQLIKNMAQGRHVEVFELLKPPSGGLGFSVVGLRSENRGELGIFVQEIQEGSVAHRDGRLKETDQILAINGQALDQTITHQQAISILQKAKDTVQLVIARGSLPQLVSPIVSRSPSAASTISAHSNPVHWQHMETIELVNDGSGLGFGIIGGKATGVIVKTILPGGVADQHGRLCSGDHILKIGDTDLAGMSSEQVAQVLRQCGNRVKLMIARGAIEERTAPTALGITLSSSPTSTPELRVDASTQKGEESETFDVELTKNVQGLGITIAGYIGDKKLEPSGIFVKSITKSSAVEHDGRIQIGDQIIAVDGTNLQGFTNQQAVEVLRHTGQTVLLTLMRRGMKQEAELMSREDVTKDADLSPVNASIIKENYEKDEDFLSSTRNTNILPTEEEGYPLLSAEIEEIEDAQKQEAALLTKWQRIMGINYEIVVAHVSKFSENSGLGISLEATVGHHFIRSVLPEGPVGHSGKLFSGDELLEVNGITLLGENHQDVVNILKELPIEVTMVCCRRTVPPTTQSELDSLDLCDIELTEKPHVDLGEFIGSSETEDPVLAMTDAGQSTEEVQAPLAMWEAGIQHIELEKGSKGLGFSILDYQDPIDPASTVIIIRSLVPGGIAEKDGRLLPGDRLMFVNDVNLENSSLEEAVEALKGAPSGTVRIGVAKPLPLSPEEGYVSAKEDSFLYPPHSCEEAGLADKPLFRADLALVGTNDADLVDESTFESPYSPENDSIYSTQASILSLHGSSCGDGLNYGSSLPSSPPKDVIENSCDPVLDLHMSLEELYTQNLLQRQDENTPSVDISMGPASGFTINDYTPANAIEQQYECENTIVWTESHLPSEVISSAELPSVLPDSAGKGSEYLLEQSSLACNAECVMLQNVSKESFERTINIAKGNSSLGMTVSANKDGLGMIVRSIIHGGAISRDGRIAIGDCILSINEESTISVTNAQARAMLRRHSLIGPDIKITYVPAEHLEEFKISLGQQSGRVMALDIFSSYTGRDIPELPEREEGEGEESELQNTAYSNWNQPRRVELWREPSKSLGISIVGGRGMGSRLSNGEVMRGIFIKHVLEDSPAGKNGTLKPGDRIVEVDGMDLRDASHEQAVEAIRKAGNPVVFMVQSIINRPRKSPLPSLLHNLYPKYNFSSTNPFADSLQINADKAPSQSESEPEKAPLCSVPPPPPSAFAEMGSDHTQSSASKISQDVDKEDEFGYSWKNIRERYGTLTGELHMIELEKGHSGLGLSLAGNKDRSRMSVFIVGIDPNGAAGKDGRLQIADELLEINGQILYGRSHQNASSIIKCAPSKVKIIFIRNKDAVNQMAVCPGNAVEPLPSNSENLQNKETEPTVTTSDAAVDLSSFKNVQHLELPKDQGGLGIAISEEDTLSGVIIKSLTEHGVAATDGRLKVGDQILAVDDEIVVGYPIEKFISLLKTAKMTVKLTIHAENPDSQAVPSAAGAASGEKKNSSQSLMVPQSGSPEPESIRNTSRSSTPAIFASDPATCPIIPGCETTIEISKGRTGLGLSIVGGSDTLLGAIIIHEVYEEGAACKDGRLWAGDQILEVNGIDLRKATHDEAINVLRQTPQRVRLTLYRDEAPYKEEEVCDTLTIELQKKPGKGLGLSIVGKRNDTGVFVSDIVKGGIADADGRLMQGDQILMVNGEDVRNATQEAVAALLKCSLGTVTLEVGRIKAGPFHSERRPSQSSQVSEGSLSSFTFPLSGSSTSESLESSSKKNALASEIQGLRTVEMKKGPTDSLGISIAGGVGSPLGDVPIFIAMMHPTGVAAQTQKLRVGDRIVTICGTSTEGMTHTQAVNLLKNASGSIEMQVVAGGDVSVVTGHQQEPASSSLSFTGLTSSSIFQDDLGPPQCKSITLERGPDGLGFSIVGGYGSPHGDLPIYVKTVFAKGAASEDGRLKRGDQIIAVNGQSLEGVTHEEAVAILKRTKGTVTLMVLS
Method in brief: as §1

[3] = molecular target: T3, PDZ-domain polypeptide (GST/PDZ fusion protein) (Homo sapiens, UniProt Q96JH8); details: PDZ FLJ 10324, PDZ Domain 1
T3 construct: made in house; host or cells: E. coli (DH5alpha, BL21 or JM109)
T3 sequence (Q96JH8 1-1075): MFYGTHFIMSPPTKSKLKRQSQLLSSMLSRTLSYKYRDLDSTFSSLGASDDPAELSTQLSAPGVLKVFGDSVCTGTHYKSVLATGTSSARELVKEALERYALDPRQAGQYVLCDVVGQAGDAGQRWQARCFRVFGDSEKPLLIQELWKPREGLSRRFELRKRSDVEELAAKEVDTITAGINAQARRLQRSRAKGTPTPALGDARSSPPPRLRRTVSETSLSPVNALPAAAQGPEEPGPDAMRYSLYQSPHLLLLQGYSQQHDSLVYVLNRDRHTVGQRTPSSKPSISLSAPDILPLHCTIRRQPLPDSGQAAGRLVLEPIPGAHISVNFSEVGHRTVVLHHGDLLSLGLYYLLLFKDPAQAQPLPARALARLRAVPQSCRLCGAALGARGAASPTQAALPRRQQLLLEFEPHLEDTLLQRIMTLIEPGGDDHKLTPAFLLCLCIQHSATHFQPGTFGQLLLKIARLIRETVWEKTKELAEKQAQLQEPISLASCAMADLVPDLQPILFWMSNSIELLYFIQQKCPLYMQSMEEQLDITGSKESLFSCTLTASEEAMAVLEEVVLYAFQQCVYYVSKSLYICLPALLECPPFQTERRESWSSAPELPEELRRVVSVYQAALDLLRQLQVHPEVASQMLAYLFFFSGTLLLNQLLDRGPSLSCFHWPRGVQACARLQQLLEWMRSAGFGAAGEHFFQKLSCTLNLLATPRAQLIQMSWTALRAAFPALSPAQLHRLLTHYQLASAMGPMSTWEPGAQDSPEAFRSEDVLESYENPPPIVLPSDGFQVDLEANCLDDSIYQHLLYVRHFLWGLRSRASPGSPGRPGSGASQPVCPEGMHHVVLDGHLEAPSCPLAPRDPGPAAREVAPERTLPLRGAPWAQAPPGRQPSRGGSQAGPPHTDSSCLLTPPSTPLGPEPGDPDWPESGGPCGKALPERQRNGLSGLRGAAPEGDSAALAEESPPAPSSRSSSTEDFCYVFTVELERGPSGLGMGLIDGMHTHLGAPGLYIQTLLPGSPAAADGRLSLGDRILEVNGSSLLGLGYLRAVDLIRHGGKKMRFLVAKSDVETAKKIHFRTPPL
Method in brief: as §1

[4] = PDZ MUPP-1, PDZ Domain 7, titration of the PL peptide, read-out: Peptide Optimal Conc (Kd, dissociation constant)
[5] = titration of the PL peptide, read-out: Peptide Optimal Conc (Kd, dissociation constant)

CC[C@H](C)[C@H](NC(=O)[C@H](C)NC(=O)[C@H](CC(C)C)NC(=O)[C@H](Cc1c[nH]c2ccccc12)NC(=O)[C@H](Cc1c[nH]cn1)NC(=O)[C@H](CCC(N)=O)NC(=O)[C@H](CC(C)C)NC(=O)[C@H](CCC(N)=O)NC(=O)[C@H](Cc1ccccc1)NC(=O)[C@H](CCC(N)=O)NC(=O)[C@H](CCCNC(=N)N)NC(=O)[C@@H](NC(=O)[C@H](CC(=O)O)NC(=O)[C@H](CCCNC(=N)N)NC(=O)[C@H](CCC(N)=O)NC(=O)[C@H](C)NC(=O)[C@@H](NC(=O)[C@H](CC(C)C)NC(=O)[C@H](Cc1c[nH]cn1)NC(=O)[C@H](Cc1c[nH]cn1)NC(=O)CCCC[C@@H]1SC[C@@H]2NC(=O)N[C@@H]21)C(C)C)[C@@H](C)CC)C(=O)O [noradrenaline transporter] (Biotin-HHLVAQRDIRQFQLQHWLAI-OH; C-terminus assumed)
Kd ([1]; Peptide Optimal Conc (Kd by titration of the PL peptide), PDZ Mint 1, PDZ Domain 1, 2): 500 nM | Kd ([2]; Peptide Optimal Conc (Kd by titration of the PL peptide), PDZ MUPP-1, PDZ Domain 3): 400 nM | Kd ([2]; Peptide Optimal Conc (Kd by titration of the PL peptide), PDZ MUPP-1, PDZ Domain 7): 800 nM | Kd ([2]; Peptide Optimal Conc (Kd by titration of the PL peptide), PDZ MUPP-1, PDZ Domain 9): 700 nM | Kd ([3]; Peptide Optimal Conc (Kd by titration of the PL peptide)): 600 nM

CC[C@H](C)[C@H](NC(=O)[C@H](Cc1ccc(O)cc1)NC(=O)[C@H](CC(C)C)NC(=O)[C@H](CCC(N)=O)NC(=O)[C@H](Cc1c[nH]cn1)NC(=O)[C@H](CO)NC(=O)[C@H](C)NC(=O)[C@H](CC(C)C)NC(=O)[C@@H](NC(=O)[C@H](CC(=O)O)NC(=O)[C@H](CCSC)NC(=O)[C@H](Cc1ccccc1)NC(=O)[C@@H]1CCCN1C(=O)[C@H](CCCNC(=N)N)NC(=O)[C@@H](NC(=O)[C@H](CC(C)C)NC(=O)[C@H](CC(N)=O)NC(=O)[C@H](CC(=O)O)NC(=O)[C@@H](NC(=O)[C@H](CO)NC(=O)CCCC[C@@H]1SC[C@@H]2NC(=O)N[C@@H]21)[C@@H](C)O)C(C)C)[C@@H](C)O)C(=O)O [presenilin-2] (Biotin-STDNLVRPFMDTLASHQLYI-OH; C-terminus assumed)
Kd ([1]; PDZ Mint 1, PDZ Domain 1, 2, titration of the PL peptide, read-out: Peptide Optimal Conc (Kd, dissociation constant)): 6000 nM | Kd [2, 4]: 4000 nM | Kd [3, 5]: 1000 nM

CC(C)C[C@H](NC(=O)[C@H](Cc1c[nH]c2ccccc12)NC(=O)[C@H](Cc1c[nH]cn1)NC(=O)[C@H](CCCNC(=N)N)NC(=O)[C@H](CC(C)C)NC(=O)[C@@H](NC(=O)[C@H](Cc1ccccc1)NC(=O)[C@H](CCC(N)=O)NC(=O)[C@H](CCCNC(=N)N)NC(=O)[C@@H](NC(=O)[C@H](CCC(=O)O)NC(=O)CNC(=O)[C@H](CCCNC(=N)N)NC(=O)[C@H](CC(=O)O)NC(=O)[C@@H](NC(=O)[C@H](CC(C)C)NC(=O)[C@H](CCC(=O)O)NC(=O)[C@H](CCCNC(=N)N)NC(=O)CCCC[C@@H]1SC[C@@H]2NC(=O)N[C@@H]21)C(C)C)C(C)C)[C@@H](C)O)C(=O)N[C@@H](CCCCN)C(=O)N[C@H](C(=O)O)C(C)C [Dopamine transporter (Na+-dependent)] (Biotin-RELVDRGEVRQFTLRHWLKV-OH; C-terminus assumed)
Kd ([3]; read-out: Peptide Optimal Conc (Kd by titration of the PL peptide)): 300 nM

CC[C@H](C)[C@H](NC(=O)[C@H](Cc1ccc(O)cc1)NC(=O)[C@@H](NC(=O)[C@@H]1CCCN1C(=O)[C@H](CCC(N)=O)NC(=O)[C@H](CCC(=O)O)NC(=O)[C@H](CCC(N)=O)NC(=O)[C@H](C)NC(=O)[C@@H](NC(=O)[C@H](CC(C)C)NC(=O)[C@H](CC(C)C)NC(=O)[C@H](CCCNC(=N)N)NC(=O)[C@H](Cc1ccc(O)cc1)NC(=O)[C@H](CCSC)NC(=O)[C@H](C)NC(=O)[C@H](C)NC(=O)[C@@H]1CCCN1C(=O)[C@H](CCSC)NC(=O)[C@@H](NC(=O)[C@H](CCCCN)NC(=O)CCCC[C@@H]1SC[C@@H]2NC(=O)N[C@@H]21)[C@@H](C)O)[C@@H](C)O)C(C)C)C(=O)O [MINT-1] (Biotin-KTMPAAMYRLLTAQEQPVYI-OH; C-terminus assumed)
Kd ([1]; PDZ Mint 1, PDZ Domain 1, titration of the PL peptide, read-out: Peptide Optimal Conc (Kd, dissociation constant)): 2000 nM | Kd [2, 4]: 1500 nM | Kd [3, 5]: 1000 nM

CC[C@H](C)[C@H](NC(=O)[C@H](CC(=O)O)NC(=O)[C@H](CCC(=O)O)NC(=O)[C@H](CCCNC(=N)N)NC(=O)[C@@H](NC(=O)CCCC[C@@H]1SC[C@@H]2NC(=O)N[C@@H]21)[C@@H](C)O)C(=O)N[C@@H](Cc1ccc(O)cc1)C(=O)N[C@H](C(=O)N[C@@H](CC(N)=O)C(=O)N[C@@H](Cc1ccc(O)cc1)C(=O)N1CCC[C@H]1C(=O)N[C@H](C(=O)N[C@@H](Cc1ccccc1)C(=O)N[C@@H](CO)C(=O)N[C@@H](CCCNC(=N)N)C(=O)N[C@@H](CCCNC(=N)N)C(=O)N1CCC[C@H]1C(=O)N[C@@H](CCCCN)C(=O)N[C@H](C(=O)N[C@@H](CCCNC(=N)N)C(=O)N[C@H](C(=O)O)C(C)C)[C@@H](C)O)[C@@H](C)O)C(C)C [DNAM-1] (Biotin-TREDIYVNYPTFSRRPKTRV-OH; C-terminus assumed)
Kd ([2]; Peptide Optimal Conc (Kd by titration of the PL peptide), PDZ MUPP-1, PDZ Domain 10): 2500 nM

CC[C@H](C)[C@H](NC(=O)CNC(=O)[C@H](CO)NC(=O)[C@H](Cc1ccccc1)NC(=O)[C@@H](NC(=O)[C@H](CS)NC(=O)CNC(=O)CNC(=O)[C@H](C)NC(=O)[C@@H]1CCCN1C(=O)[C@@H](NC(=O)[C@@H]1CCCN1C(=O)CCCC[C@@H]1SC[C@@H]2NC(=O)N[C@@H]21)[C@@H](C)CC)[C@@H](C)O)C(=O)N[C@@H](Cc1ccccc1)C(=O)N1CCC[C@H]1C(=O)N[C@H](C(=O)N[C@@H](CC(C)C)C(=O)N[C@H](C(=O)N[C@@H](CO)C(=O)N1CCC[C@H]1C(=O)N[C@@H](CC(C)C)C(=O)O)[C@@H](C)O)[C@@H](C)O [KIA 1481] (Biotin-PIPAGGCTFSGIFPTLTSPL-OH; C-terminus assumed)
Kd ([1]; PDZ Mint 1, PDZ Domain 1, 2, read-out: Peptide Optimal Conc (non-zero value: Kd by titration of the PL peptide)): 800 nM

CC[C@H](C)[C@H](NC(=O)[C@H](CCCCN)NC(=O)[C@@H](NC(=O)[C@H](CO)NC(=O)[C@@H]1CCCN1C(=O)[C@H](Cc1ccccc1)NC(=O)[C@@H](NC(=O)[C@@H](NC(=O)[C@H](CCCNC(=N)N)NC(=O)[C@H](CCC(=O)O)NC(=O)[C@H](CC(C)C)NC(=O)[C@H](CC(C)C)NC(=O)[C@H](CC(C)C)NC(=O)[C@@H](NC(=O)CNC(=O)[C@@H](NC(=O)CCCC[C@@H]1SC[C@@H]2NC(=O)N[C@@H]21)C(C)C)[C@@H](C)O)C(C)C)[C@@H](C)CC)C(C)C)C(=O)N[C@@H](C)C(=O)N[C@H](C(=O)N[C@@H](CC(C)C)C(=O)N[C@H](C(=O)O)C(C)C)[C@@H](C)O [Adenovirus E4 Type9]
Kd ([2]; PDZ MUPP-1, PDZ Domain 11, Protein Optimal Conc 5, read-out: Peptide Optimal Conc (Kd by titration of the PL peptide)): 100 nM | Kd ([3]; Protein Optimal Conc 5, read-out: Peptide Optimal Conc (Kd by titration of the PL peptide)): 100 nM
